Source: PubChem BioAssay AID248 (DTP/NCI, 2004)
Several values for one entry are separate records, joined by “and”; a condition that tells them apart may be missing. Equal values may be shown once. Inconclusive results and toxic doses are left out.

Test system: L1210 leukemia ip in BDF1 mice, survival T/C
Assay: NCI In Vivo Anticancer Drug Screen. Data for tumor model L1210 Leukemia (intraperitoneal) in B6D2F1 (BDF1) mice
Details: endpoint: mean survival time, higher = longer survival
Procedure, shortened: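 Antitumor effect is assessed in tumor-bearing animals. Survival in the compound arm is compared with a vehicle-dosed control arm and expressed as their quotient.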

CCCCCCCCCCCSCCCCCCCCSCCCCCCCCCCC
T/C (dose: 100.0 mg/kg/injection, schedule: Q01DX001 (ip), vehicle: Klucel (hydroxypropylcellulose) (HPC)): 87 % of control | T/C (dose: 200.0 mg/kg/injection, schedule: Q01DX001 (ip), vehicle: Klucel (hydroxypropylcellulose) (HPC)): 92 % of control | T/C (dose: 400.0 mg/kg/injection, schedule: Q01DX001 (ip), vehicle: Klucel (hydroxypropylcellulose) (HPC)): 91 % of control

CC1CCN(C(=O)CCCCl)CC1
T/C (dose: 100.0 mg/kg/injection, schedule: Q04DX002 (ip), vehicle: saline): 104 % of control | T/C (dose: 200.0 mg/kg/injection, schedule: Q04DX002 (ip), vehicle: saline): 114 % of control

CC(C)OC(=O)C(C)OC(=O)C1CCCCC1 (stereo not drawn)
T/C (dose: 100.0 mg/kg/injection, schedule: Q01DX001 (ip), vehicle: saline): 98 % of control | T/C (dose: 200.0 mg/kg/injection, schedule: Q01DX001 (ip), vehicle: saline): 97 % of control | T/C (dose: 400.0 mg/kg/injection, schedule: Q01DX001 (ip), vehicle: saline): 93 % of control

COc1cc2c3c(c4ccc(OC)c(OC)c4c2cc1OC)CN1CCC[C@@H]1C3
T/C (dose: 1.25 mg/kg/injection, schedule: Q01DX Z (im), vehicle: water): 103 % of control | T/C (dose: 1.25 mg/kg/injection, schedule: Q01DX Z (ip), vehicle: water): 103 % of control | T/C (dose: 1.25 mg/kg/injection, schedule: Q01DX Z (sc), vehicle: water): 106 % of control | T/C (dose: 1.25 mg/kg/injection, schedule: Q02DX Z (ip), vehicle: water): 105 % of control | T/C (dose: 2.2 mg/kg/injection, schedule: Q01DX Z (ip), vehicle: carboxymethylcellulose (CMC)): 111 % of control | T/C (dose: 2.2 mg/kg/injection, schedule: Q01DX Z (ip), vehicle: other): 107 % of control | T/C (dose: 2.5 mg/kg/injection, schedule: Q01DX Z (im), vehicle: water): 111 % of control | T/C (dose: 2.5 mg/kg/injection, schedule: Q01DX Z (ip), vehicle: water): 94 % of control and 106 % of control | T/C (dose: 2.5 mg/kg/injection, schedule: Q01DX Z (sc), vehicle: water): 106 % of control | T/C (dose: 2.5 mg/kg/injection, schedule: Q02DX Z (ip), vehicle: water): 109 % of control | T/C (dose: 2.5 mg/kg/injection, schedule: Q03DX Z (ip), vehicle: water): 105 % of control | T/C (dose: 4.0 mg/kg/injection, schedule: Q01DX Z (ip), vehicle: water): 94 % of control | T/C (dose: 4.4 mg/kg/injection, schedule: Q01DX Z (ip), vehicle: carboxymethylcellulose (CMC)): 114 % of control and 117 % of control | T/C (dose: 5.0 mg/kg/injection, schedule: Q01DX005 (iv), vehicle: water): 106 % of control | T/C (dose: 5.0 mg/kg/injection, schedule: Q01DX Z (im), vehicle: water): 118 % of control | T/C (dose: 5.0 mg/kg/injection, schedule: Q01DX Z (ip), vehicle: water): 103 % of control and 117 % of control and 124 % of control | T/C (dose: 5.0 mg/kg/injection, schedule: Q01DX Z (oral), vehicle: water): 112 % of control and 115 % of control | T/C (dose: 5.0 mg/kg/injection, schedule: Q01DX Z (sc), vehicle: water): 122 % of control | T/C (dose: 5.0 mg/kg/injection, schedule: Q02DX Z (ip), vehicle: water): 95 % of control and 103 % of control | T/C (dose: 5.0 mg/kg/injection, schedule: Q03DX Z (ip), vehicle: water): 103 % of control and 106 % of control | T/C (dose: 6.0 mg/kg/injection, schedule: Q01DX Z (ip), vehicle: water): 109 % of control | T/C (dose: 6.6 mg/kg/injection, schedule: Q01DX Z (ip), vehicle: carboxymethylcellulose (CMC)): 117 % of control and 118 % of control | T/C (dose: 6.6 mg/kg/injection, schedule: Q01DX Z (ip), vehicle: other): 117 % of control | T/C (dose: 7.5 mg/kg/injection, schedule: Q01DX Z (ip), vehicle: water): 115 % of control | T/C (dose: 8.0 mg/kg/injection, schedule: Q01DX Z (ip), vehicle: water): 97 % of control and 101 % of control | T/C (dose: 9.0 mg/kg/injection, schedule: Q01DX Z (ip), vehicle: water): 120 % of control | T/C (dose: 10.0 mg/kg/injection, schedule: Q01DX005 (iv), vehicle: water): 114 % of control | T/C (dose: 10.0 mg/kg/injection, schedule: Q01DX Z (im), vehicle: water): 97 % of control | T/C (dose: 10.0 mg/kg/injection, schedule: Q01DX Z (ip), vehicle: water): 117 % of control | T/C (dose: 10.0 mg/kg/injection, schedule: Q01DX Z (sc), vehicle: water): 100 % of control | T/C (dose: 10.0 mg/kg/injection, schedule: Q02DX Z (ip), vehicle: water): 111 % of control and 112 % of control | T/C (dose: 10.0 mg/kg/injection, schedule: Q02DX Z (oral), vehicle: water): 121 % of control | T/C (dose: 12.0 mg/kg/injection, schedule: Q01DX Z (ip), vehicle: water): 114 % of control and 122 % of control | T/C (dose: 12.5 mg/kg/injection, schedule: Q01DX Z (ip), vehicle: water): 120 % of control | T/C (dose: 15.0 mg/kg/injection, schedule: Q01DX Z (ip), vehicle: other): 151 % of control | T/C (dose: 15.0 mg/kg/injection, schedule: Q01DX Z (ip), vehicle: water): 95 % of control | T/C (dose: 20.0 mg/kg/injection, schedule: Q01DX001 (ip), vehicle: water): 106 % of control | T/C (dose: 20.0 mg/kg/injection, schedule: Q01DX Z (ip), vehicle: water): 98 % of control and 104 % of control | T/C (dose: 20.0 mg/kg/injection, schedule: Q07DX003 (ip), vehicle: water): 123 % of control | T/C (dose: 22.0 mg/kg/injection, schedule: Q01DX Z (ip), vehicle: carboxymethylcellulose (CMC)): 92 % of control | T/C (dose: 30.0 mg/kg/injection, schedule: Q01DX001 (ip), vehicle: water): 114 % of control | T/C (dose: 30.0 mg/kg/injection, schedule: Q02DX Z (ip), vehicle: water): 120 % of control | T/C (dose: 30.0 mg/kg/injection, schedule: Q02DX Z (oral), vehicle: water): 90 % of control | T/C (dose: 30.0 mg/kg/injection, schedule: Q03DX Z (ip), vehicle: water): 124 % of control | T/C (dose: 30.0 mg/kg/injection, schedule: Q07DX003 (ip), vehicle: water): 103 % of control | T/C (dose: 33.0 mg/kg/injection, schedule: Q01DX Z (ip), vehicle: carboxymethylcellulose (CMC)): 114 % of control | T/C (dose: 40.0 mg/kg/injection, schedule: Q01DX001 (ip), vehicle: water): 114 % of control | T/C (dose: 40.0 mg/kg/injection, schedule: Q01DX Z (ip), vehicle: water): 98 % of control and 102 % of control | T/C (dose: 40.0 mg/kg/injection, schedule: Q01DX Z (oral), vehicle: water): 92 % of control | T/C (dose: 40.0 mg/kg/injection, schedule: Q03DX Z (ip), vehicle: water): 88 % of control | T/C (dose: 80.0 mg/kg/injection, schedule: Q01DX001 (ip), vehicle: saline): 117 % of control | T/C (dose: 80.0 mg/kg/injection, schedule: Q07DX Z (ip), vehicle: saline): 114 % of control | T/C (dose: 160.0 mg/kg/injection, schedule: Q07DX Z (ip), vehicle: saline): 105 % of control

Nc1ccc(C(=O)CC(=O)c2cccc([N+](=O)[O-])c2)cc1
T/C (dose: 100.0 mg/kg/injection, schedule: Q04DX003 (ip), vehicle: carboxymethylcellulose (CMC)): 97 % of control | T/C (dose: 200.0 mg/kg/injection, schedule: Q04DX003 (ip), vehicle: carboxymethylcellulose (CMC)): 93 % of control | T/C (dose: 400.0 mg/kg/injection, schedule: Q04DX003 (ip), vehicle: carboxymethylcellulose (CMC)): 90 % of control

CCC1(CC)C2=CCC3C(CCC4(C)C(C(C)CCCC(C)C)CCC34)C2(C)CCC1OC(C)=O (stereo not drawn)
T/C (dose: 50.0 mg/kg/injection, schedule: Q01DX009 (sc), vehicle: steriod suspending solution): 90 % of control | T/C (dose: 100.0 mg/kg/injection, schedule: Q01DX009 (sc), vehicle: steriod suspending solution): 87 % of control | T/C (dose: 100.0 mg/kg/injection, schedule: Q04DX003 (sc), vehicle: steriod suspending solution): 107 % of control | T/C (dose: 200.0 mg/kg/injection, schedule: Q01DX009 (sc), vehicle: steriod suspending solution): 100 % of control | T/C (dose: 200.0 mg/kg/injection, schedule: Q04DX003 (sc), vehicle: steriod suspending solution): 86 % of control | T/C (dose: 400.0 mg/kg/injection, schedule: Q04DX003 (sc), vehicle: steriod suspending solution): 96 % of control

CN(C)CCCN=Cc1ccc(O)cc1O.CN(C)CCCN=Cc1ccc(O)cc1O.[Ni+2]
T/C (dose: 25.0 mg/kg/injection, schedule: Q04DX003 (ip), vehicle: saline with Tween-80): 91 % of control | T/C (dose: 50.0 mg/kg/injection, schedule: Q04DX003 (ip), vehicle: saline with Tween-80): 91 % of control | T/C (dose: 100.0 mg/kg/injection, schedule: Q04DX003 (ip), vehicle: saline with Tween-80): 89 % of control
